Test in the first series: not given
Conditions: not given
Regarding `c1ccc(CSc2nc3ccccc3[nH]2)cc1`, the logP (in general, a log measure of how a compound divides between an organic and an aqueous phase) was 3.92. Same read-out and setting: under `NNC(=O)c1ccnc(NN)c1` stands -0.57.

As to `c1ccc(C(Sc2nc3ccccc3[nH]2)c2ccccc2)cc1`, the logP turned out to be 4.9.

In turn, `CC(=O)NNC(=O)c1ccncc1` yielded a log partition coefficient (logP) of -0.87.

For `O=C(NN=C1CCCCC1)c1ccncc1`, the logP was found to be 0.27.

A further series in a line: method code SF-AS, from DOI: 10.1021/je200827u. The settings on record: pH 5.8.
Consider `CCSc1nc2ccccc2[nH]1`, for which the logD – broadly, lipophilicity at a set pH, counting ionised and neutral species – worked out at 2.67. Still for that read-out and setting: under `CC(C)Sc1nc2ccccc2[nH]1` stands 3.25; under `O=[N+]([O-])c1cc(CSc2nc3ccccc3[nH]2)cc([N+](=O)[O-])c1`, 3.14.

On to `CC1CCC(=NNC(=O)c2ccncc2)CC1` (stereo unspecified), for which the pH-dependent lipophilicity (logD) worked out at 0.74. As to `O=C(NN=C1CCCC1)c1ccncc1`, the logD came to 0.22. In turn, `CCSc1nc2ccccc2n1CC` came in with a logD of 3.43.

(Values after the SangsterLogP compilation.)
